Reference: the supplement of paper PMC10307832

Tests used:
Assay in all cases: relative viability (nuclei count vs DMSO), 5 days (fraction); higher = more cells survive
KN-93 = compound: CN(C/C=C/C1=CC=C(C=C1)Cl)CC2=CC=CC=C2N(CCO)S(=O)(=O)C3=CC=C(C=C3)OC [KN-93]
Summary of the method: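 Viability is treated-well nuclei as a fraction of vehicle-well nuclei, reported as the median across plates. Before counting, lung cancer cell lines were kept overnight at 37 °C in 1536-well plates, pinned with five √10-spaced library-drug doses on vehicle-anchored plates, and left 5 days without medium change, then fixed, permeabilised and Hoechst-stained in one step, imaged at 4× and counted by MetaXpress. A plate passed only if control CV was below 25% and at least one doubling occurred.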

KN-93 + Linsitinib = compound: CN(C/C=C/C1=CC=C(C=C1)Cl)CC2=CC=CC=C2N(CCO)S(=O)(=O)C3=CC=C(C=C3)OC [KN-93] + C[C@]1(O)C[C@@H](c2nc(-c3ccc4ccc(-c5ccccc5)nc4c3)c3c(N)nccn32)C1 [Linsitinib] (partner 1 µM)
Summary of the method: (§1)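 Five library-drug doses in √10 steps were combined with a fixed anchor-drug dose, or a single drug was given alone, by pin tool to lung cancer cell lines in 1536-well plates the day after seeding. Nuclei were stained and counted after 5 days. Relative viability is the nuclei count in treated wells over that in vehicle wells, taken as the median of duplicate plates.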

KN-93 + Luminespib = compound: CN(C/C=C/C1=CC=C(C=C1)Cl)CC2=CC=CC=C2N(CCO)S(=O)(=O)C3=CC=C(C=C3)OC [KN-93] + CCNC(=O)c1noc(-c2cc(C(C)C)c(O)cc2O)c1-c1ccc(CN2CCOCC2)cc1 [Luminespib] (partner 0.01 µM)
Summary of the method: as §1

KN-93 + Vorinostat = compound: CN(C/C=C/C1=CC=C(C=C1)Cl)CC2=CC=CC=C2N(CCO)S(=O)(=O)C3=CC=C(C=C3)OC [KN-93] + O=C(CCCCCCC(=O)Nc1ccccc1)NO [Vorinostat] (partner 1 µM)
Summary of the method: as §1

KN-93 + Crizotinib = compound: CN(C/C=C/C1=CC=C(C=C1)Cl)CC2=CC=CC=C2N(CCO)S(=O)(=O)C3=CC=C(C=C3)OC [KN-93] + C[C@@H](Oc1cc(-c2cnn(C3CCNCC3)c2)cnc1N)c1c(Cl)ccc(F)c1Cl [Crizotinib] (partner 1 µM)
Summary of the method: as §1

| Cell Line | relative viability (KN-93; 0.08 µM) | relative viability (KN-93; 0.253 µM) | relative viability (KN-93; 2.53 µM) | relative viability (KN-93; 8 µM) | relative viability (KN-93 + Linsitinib; first compound 0.08 µM) | relative viability (KN-93 + Linsitinib; first compound 0.253 µM) | relative viability (KN-93 + Linsitinib; first compound 2.53 µM) | relative viability (KN-93 + Linsitinib; first compound 8 µM) | relative viability (KN-93 + Luminespib; first compound 0.08 µM) | relative viability (KN-93 + Luminespib; first compound 0.253 µM) | relative viability (KN-93 + Luminespib; first compound 2.53 µM) | relative viability (KN-93 + Luminespib; first compound 8 µM) | relative viability (KN-93 + Vorinostat; first compound 0.08 µM) | relative viability (KN-93 + Vorinostat; first compound 0.253 µM) | relative viability (KN-93 + Vorinostat; first compound 2.53 µM) | relative viability (KN-93 + Vorinostat; first compound 8 µM) | relative viability (KN-93 + Crizotinib; first compound 0.08 µM) | relative viability (KN-93 + Crizotinib; first compound 0.253 µM) | relative viability (KN-93 + Crizotinib; first compound 2.53 µM) | relative viability (KN-93 + Crizotinib; first compound 8 µM) |
| --- | --- | --- | --- | --- | --- | --- | --- | --- | --- | --- | --- | --- | --- | --- | --- | --- | --- | --- | --- | --- |
| NCI-H2228 | 0.904 | 1.27 | 1.41 | 0.711 | 0.581 | 0.517 | 0.63 | 0.314 | 0.174 | 0.126 | 0.163 | 0.134 | 0.588 | 0.786 | 0.655 | 0.346 | 0.445 | 0.48 | 0.526 | 0.248 |
| NCI-H2347 | 1.03 | 1.11 | 1.08 | 0.797 | 1.07 | 0.922 | 0.918 | 0.797 | 0.618 | 0.728 | 0.458 | 0.511 | 0.513 | 0.623 | 0.674 | 0.458 | 0.686 | 0.731 | 0.739 | 0.463 |
| NCI-H2405 | 1.03 | 1.02 | 1.03 | 0.728 | 0.984 | 0.908 | 0.924 | 0.564 | 0.752 | 0.76 | 0.778 | 0.446 | 1.02 | 1.08 | 0.949 | 0.691 | 0.853 | 0.832 | 0.873 | 0.665 |
| NCI-H3122 | 0.972 | 1.02 | 1.07 | 0.931 | 1.08 | 0.803 | 1.23 | 0.882 | 0.0763 | 0.0918 | 0.0989 | 0.0487 | 0.595 | 1.12 | 1.08 | 0.66 | 0.287 | 0.31 | 0.299 | 0.264 |
| PC-3 [JPC-3] | 1 | 1.11 | 1.01 | 0.866 | 1.02 | 1.02 | 0.995 | 0.876 | 0.572 | 0.838 | 0.632 | 0.577 | 0.794 | 0.765 | 0.756 | 0.637 | 0.953 | 1.2 | 1.06 | 0.886 |
